Data reported in patent publication US9695155B2, “Herbicidal substituted pyrimidinyloxy benzene compounds” (E. I. DU PONT DE NEMOURS AND COMPANY, priority 2013, dated 2017).

How the values were obtained:
hairy beggarticks = experiment: Test E postemergence; assay type: in vivo, Bidens pilosa
Excerpt: (§1) Seeds of plant species selected from corn (Zea mays), soybean (Glycine max), velvetleaf (Abutilon theophrasti), lambsquarters (Chenopodium album), wild poinsettia (Euphorbia heterophylla), palmer pigweed (Amaranthus palmeri), waterhemp (common waterhemp, Amaranthus rudis), surinam grass (Brachiaria decumbens), large (Lg) crabgrass (Digitaria sanguinalis), Brazilian crabgrass (Digitaria horizontalis), fall panicum (Panicum dichotomiflorum), giant foxtail (Setaria faberii), green foxtail (Setaria viridis), goosegrass (Eleusine indica), johnsongrass (Sorghum halepense), ragweed (common ragweed, Ambrosia elatior), barnyardgrass (Echinochloa crus-galli), sandbur (southern sandbur, Cenchrus echinatus), arrowleaf sida (Sida rhombifolia), Italian ryegrass (Lolium multiflorum), dayflower (Virginia (VA) dayflower, Commelina virginica), field bindweed (Convolvulus arvensis), morningglory (Ipomoea coccinea), nightshade (eastern black nightshade, Solanum ptycanthum), kochia (Kochia scoparia), yellow nutsedge (Cyperus esculentus), cocklebur (common cocklebur, Xanthium strumarium), smartweed (ladysthumb smartweed, and hairy beggarticks (Bidens pilosa), were planted into a silt loam soil and treated preemergence with test chemicals formulated in a non-phytotoxic solvent mixture which included a surfactant.
(§2) At the same time, plants from these crop and weed species and also horseweed (Canada horseweed, Conyza canadensis), waterhemp_RES1, (ALS & Triazine resistant common waterhemp, Amaranthus rudis), and waterhemp_RES2, (ALS & HPPD resistant common waterhemp, Amaranthus rudis) were planted in pots containing Redi-Earth® planting medium (Scotts Company, 14111 Scottslawn Road, Marysville, Ohio 43041) comprising spaghnum peat moss, vermiculite, wetting agent and starter nutrients were treated with postemergence applications of test chemicals formulated in the same manner. Plants ranged in height from 2 to 18 cm for postemergence treatments (1- to 4-leaf stage). Treated plants and controls were maintained in a greenhouse for 14 to 21 days, after which time all species were compared to controls and visually evaluated. Plant response ratings, summarized in Table E, are based on a scale of 0 to 100 where 0 is no effect and 100 is complete control. A dash (-) response means no test result.

barnyardgrass = experiment: Test E postemergence; assay type: in vivo, Echinochloa crus-galli
Excerpt: as §1, §2

field bindweed = experiment: Test E postemergence; assay type: in vivo, Convolvulus arvensis
Excerpt: as §1, §2

chickweed [1] = experiment: Test D postemergence; assay type: in vivo, Stellaria media; conditions: Stellaria media, post-emergence
Summary of the method: (§3)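 Solvent/surfactant formulations are sprayed pre (silt loam) or post (1–4 leaf plants, 2–18 cm). Plants stay 7–21 days in controlled conditions before a visual 0–100 score is given.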

winter barley [2] = experiment: Test D postemergence; assay type: in vivo, Hordeum vulgare; conditions: Hordeum vulgare, post-emergence, Postemergence, scale 0 to 100 (0 no effect, 100 complete control), read-out: Plant response rating, Barley, Winter
Summary of the method: as §3

spring barley [3] = experiment: Test D postemergence; assay type: in vivo, Hordeum vulgare; conditions: Hordeum vulgare, post-emergence, Postemergence, scale 0 to 100 (0 no effect, 100 complete control), read-out: Plant response rating, Barley, Spring
Summary of the method: as §3

field poppy = experiment: Test D preemergence; assay type: in vivo, Papaver rhoeas; conditions: Papaver rhoeas, pre-emergence, scale 0-100, read-out: Plant response rating, Field Poppy
Summary of the method: as §3

winter barley [4] = experiment: Test D preemergence; assay type: in vivo, Hordeum vulgare; conditions: Hordeum vulgare, pre-emergence
Summary of the method: as §3

spring barley [5] = experiment: Test D preemergence; assay type: in vivo, Hordeum vulgare; conditions: Hordeum vulgare, pre-emergence
Summary of the method: as §3

pigweed = experiment: Test D preemergence; assay type: in vivo, Amaranthus retroflexus; conditions: Amaranthus retroflexus, pre-emergence
Summary of the method: as §3

chickweed [6] = experiment: Test D preemergence; assay type: in vivo, Stellaria media; conditions: Stellaria media, pre-emergence, scale 0-100, read-out: Plant response rating, Chickweed
Summary of the method: as §3

wild oat = experiment: Test D postemergence; assay type: in vivo, Avena fatua; conditions: Avena fatua, post-emergence
Summary of the method: as §3

wild buckwheat = experiment: Test D preemergence; assay type: in vivo, Polygonum convolvulus; conditions: Fallopia convolvulus, pre-emergence
Summary of the method: as §3

[7] = Postemergence, 31 g ai/ha, scale 0 to 100
[8] = Postemergence, 62 g ai/ha, scale 0 to 100
[9] = Postemergence, 125 g ai/ha, scale 0 to 100
[10] = Postemergence, 250 g ai/ha, scale 0 to 100
[11] = postemergence, 16 g ai/ha, scale 0 to 100, 0 no effect, 100 complete control

Question: For `FC(F)(F)c1cnn(-c2ccccc2Oc2ncc(Cl)cn2)c1` [Compound 16], which “Plant response rating, Beggarticks” value (hairy beggarticks; [7]) is on record?
Answer: The value was 30.

Question: What about the “Plant response rating, Beggarticks” value (hairy beggarticks; [8]) of the same compound?
Answer: The value was 50.

Question: What about the “Plant response rating, Beggarticks” value (hairy beggarticks; [9]) of the same compound?
Answer: Its value is 50.

Question: And the “Plant response rating, Beggarticks” value (hairy beggarticks; [10])?
Answer: The value was 60.

Question: What about the “Plant response rating, Beggarticks” value (hairy beggarticks; [11]) of the same compound?
Answer: Its value is 30.

Question: What about the “Plant response rating, Barnyardgrass” value (barnyardgrass; [7]) of the same compound?
Answer: The value was 0.

Question: And the “Plant response rating, Barnyardgrass” value (barnyardgrass; [8])?
Answer: Its value is 0.

Question: What about the “Plant response rating, Barnyardgrass” value (barnyardgrass; [9]) of the same compound?
Answer: The value was 10.

Question: What about the “Plant response rating, Barnyardgrass” value (barnyardgrass; [10]) of the same compound?
Answer: The value was 15.

Question: What about the “Plant response rating, Barnyardgrass” value (barnyardgrass; [11]) of the same compound?
Answer: Its value is 0.

Question: What about the “Plant response rating, Field Bindweed” value (field bindweed; [7]) of the same compound?
Answer: The value was 30.

Question: And the “Plant response rating, Field Bindweed” value (field bindweed; [8])?
Answer: The value was 40.

Question: And the “Plant response rating, Field Bindweed” value (field bindweed; [9])?
Answer: The value was 50.

Question: And the “Plant response rating, Field Bindweed” value (field bindweed; [10])?
Answer: Its value is 60.

Question: And the “Plant response rating, Field Bindweed” value (field bindweed; [11])?
Answer: The value was 10.

Question: Which results are given for `FC(F)(F)c1cnn(-c2ccccc2Oc2ncc(Br)cn2)c1` [Compound 18, 5-bromo-2-[2-[4-(trifluoromethyl)-1H-pyrazol-1-yl]phenoxy]pyrimidine]?
Answer: pest or weed control at 16 g/ha (chickweed [1]; 16 g ai/ha, scale 0-100, read-out: Plant response rating, Chickweed): 15%; pest or weed control at 31 g/ha (chickweed [1]; 31 g ai/ha, scale 0 to 100 (0 no effect, 100 complete control), read-out: Plant response rating, Chickweed): 40%; pest or weed control at 62 g/ha (chickweed [1]; 62 g ai/ha, scale 0 to 100 (0 no effect, 100 complete control), read-out: Plant response rating, Chickweed): 45%; pest or weed control at 125 g/ha (chickweed [1]; 125 g ai/ha, scale 0 to 100 (0 no effect, 100 complete control), read-out: Plant response rating, Chickweed): 60%; pest or weed control at 250 g/ha (chickweed [1]; 250 g ai/ha, scale 0 to 100 (0 no effect, 100 complete control), read-out: Plant response rating, Chickweed): 95%; plant injury at 16 g/ha (winter barley [2]; 16 g ai/ha): 10%; plant injury at 31 g/ha (winter barley [2]; 31 g ai/ha): 10%; plant injury at 62 g/ha (winter barley [2]; 62 g ai/ha): 10%; plant injury at 125 g/ha (winter barley [2]; 125 g ai/ha): 15%; plant injury at 250 g/ha (winter barley [2]; 250 g ai/ha): 20%; plant injury at 16 g/ha (spring barley [3]; 16 g ai/ha): 5%; plant injury at 31 g/ha (spring barley [3]; 31 g ai/ha): 5%; plant injury at 62 g/ha (spring barley [3]; 62 g ai/ha): 10%; plant injury at 125 g/ha (spring barley [3]; 125 g ai/ha): 15%; plant injury at 250 g/ha (spring barley [3]; 250 g ai/ha): 25%; pest or weed control at 31 g/ha (field poppy; 31 g ai/ha): 70%; pest or weed control at 62 g/ha (field poppy; 62 g ai/ha): 85%; pest or weed control at 125 g/ha (field poppy; 125 g ai/ha): 95%; pest or weed control at 250 g/ha (field poppy; 250 g ai/ha): 100%; plant injury at 16 g/ha (winter barley [4]; 16 g ai/ha, scale 0 (no effect) to 100 (complete control), read-out: Plant response rating, Barley, Winter): 0%; plant injury at 31 g/ha (winter barley [4]; 31 g ai/ha, scale 0-100, read-out: Plant response rating, Barley, Winter): 10%; plant injury at 62 g/ha (winter barley [4]; 62 g ai/ha, scale 0-100, read-out: Plant response rating, Barley, Winter): 15%; plant injury at 125 g/ha (winter barley [4]; 125 g ai/ha, scale 0-100, read-out: Plant response rating, Barley, Winter): 15%; plant injury at 250 g/ha (winter barley [4]; 250 g ai/ha, scale 0-100, read-out: Plant response rating, Barley, Winter): 25%; plant injury at 16 g/ha (spring barley [5]; 16 g ai/ha, scale 0 (no effect) to 100 (complete control), read-out: Plant response rating, Barley, Spring): 0%; plant injury at 31 g/ha (spring barley [5]; 31 g ai/ha, scale 0-100, read-out: Plant response rating, Barley, Spring): 5%; plant injury at 62 g/ha (spring barley [5]; 62 g ai/ha, scale 0-100, read-out: Plant response rating, Barley, Spring): 5%; plant injury at 125 g/ha (spring barley [5]; 125 g ai/ha, scale 0-100, read-out: Plant response rating, Barley, Spring): 0%; plant injury at 250 g/ha (spring barley [5]; 250 g ai/ha, scale 0-100, read-out: Plant response rating, Barley, Spring): 30%; pest or weed control at 16 g/ha (pigweed; 16 g ai/ha, scale 0 (no effect) to 100 (complete control), read-out: Plant response rating, Pigweed): 30%; pest or weed control at 31 g/ha (pigweed; 31 g ai/ha, scale 0 (no effect) to 100 (complete control), read-out: Plant response rating, Pigweed): 100%; pest or weed control at 62 g/ha (pigweed; 62 g ai/ha, scale 0-100, read-out: Plant response rating, Pigweed): 100%; pest or weed control at 125 g/ha (pigweed; 125 g ai/ha, scale 0-100, read-out: Plant response rating, Pigweed): 100%; pest or weed control at 250 g/ha (pigweed; 250 g ai/ha, scale 0-100, read-out: Plant response rating, Pigweed): 100%; pest or weed control at 125 g/ha (chickweed [6]; 125 g ai/ha): 90%; pest or weed control at 250 g/ha (chickweed [6]; 250 g ai/ha): 100%; pest or weed control at 16 g/ha (wild oat; 16 g ai/ha, scale 0-100, read-out: Plant response rating, Oat, Wild): 10%; pest or weed control at 31 g/ha (wild oat; 31 g ai/ha, scale 0 to 100 (0 no effect, 100 complete control), read-out: Plant response rating, Oat, Wild): 10%; pest or weed control at 62 g/ha (wild oat; 62 g ai/ha, scale 0 to 100 (0 no effect, 100 complete control), read-out: Plant response rating, Oat, Wild): 15%; pest or weed control at 125 g/ha (wild oat; 125 g ai/ha, scale 0 to 100 (0 no effect, 100 complete control), read-out: Plant response rating, Oat, Wild): 20%; pest or weed control at 250 g/ha (wild oat; 250 g ai/ha, scale 0 to 100 (0 no effect, 100 complete control), read-out: Plant response rating, Oat, Wild): 25%; pest or weed control at 16 g/ha (wild buckwheat; 16 g ai/ha, scale 0 (no effect) to 100 (complete control), read-out: Plant response rating, Buckwheat, Wild): 10%; pest or weed control at 31 g/ha (wild buckwheat; 31 g ai/ha, scale 0-100, read-out: Plant response rating, Buckwheat, Wild): 70%; pest or weed control at 62 g/ha (wild buckwheat; 62 g ai/ha, scale 0-100, read-out: Plant response rating, Buckwheat, Wild): 80%; pest or weed control at 125 g/ha (wild buckwheat; 125 g ai/ha, scale 0-100, read-out: Plant response rating, Buckwheat, Wild): 100%; pest or weed control at 250 g/ha (wild buckwheat; 250 g ai/ha, scale 0-100, read-out: Plant response rating, Buckwheat, Wild): 100%
